The term EC50 denotes the concentration needed to bring the measured effect to its halfway point. A lower EC50 goes with a more potent agent.

Square brackets hold non-standard residues; d marks the D form. Peptide text beside a SMILES is read from it. * marks the point of attachment. Api = NC1(C(=O)O)CCNCC1; PhAc = O=C(Cc1ccccc1)*; Ac3c = NC1(C(=O)O)CC1; Aib = CC(C)(N)C(=O)O

In one assay the target is PDL-1 (Homo sapiens (Human), UniProt Q9NZQ7). Put plainly: KD binding (Table 1).
Sequence of PDL-1 (Q9NZQ7 19-290): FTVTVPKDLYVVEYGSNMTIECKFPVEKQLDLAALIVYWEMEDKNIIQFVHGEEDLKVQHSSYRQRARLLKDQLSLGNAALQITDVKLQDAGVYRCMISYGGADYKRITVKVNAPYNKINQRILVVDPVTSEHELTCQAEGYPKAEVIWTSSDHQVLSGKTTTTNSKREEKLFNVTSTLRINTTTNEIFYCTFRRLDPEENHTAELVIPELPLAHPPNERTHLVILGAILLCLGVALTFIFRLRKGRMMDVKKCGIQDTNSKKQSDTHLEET
`CC(C)(NC(=O)c1cc(CN)cc(NC(=O)Cc2ccccc2)c1)C(N)=O` [Compound No. 1, 2-[[3-(Aminomethyl)-5-(2-phenylacetamido)phenyl]formamido]-2-methylpropanamide]: the KD entry is given as “No Binding”.
For `CNC(=O)C(C)(C)NC(=O)c1cc(CN(C)C)cc(NC(=O)Cc2ccc(F)cc2)c1` [compound 18], the KD result is on record as “No Binding”.
Turning to `NCc1cc(NC(=O)Cc2ccccc2)cc(C(=O)NC2(C(N)=O)CCCC2)c1` [compound 7], the KD entry is “No Binding”.
For `CC(C)(NC(=O)c1cc(NC(=O)Cc2ccc(F)cc2)cc(CN)c1F)C(N)=O` [compound 16], the KD result is on record as “No Binding”.

For the next assay, the system named is PDL-1 signaling. Put plainly: Luciferase assay (Table 1). Format: cell-based.
In the case of `CC(C)(NC(=O)c1ccc(CN)c(NC(=O)Cc2ccc(F)cc2)c1)C(N)=O` [compound 13], the half-maximal effective concentration (EC50) was 20.4 µM.
Still for that read-out and setting: the same measure for `NC(=O)C1(NC(=O)C2(NC(=O)Cc3ccccc3)CCNCC2)CC1` [compound 24] (PhAc-[Api]-[Ac3c]-NH2): 7.73 µM; for `CC(C)(NC(=O)c1ccc(CN)c(NC(=O)Cc2ccccc2)c1)C(N)=O` [compound 14]: 1.19 µM; for `CC(C)(NC(=O)c1cc(NC(=O)Cc2ccccc2)cc(CN)c1F)C(N)=O` [compound 15]: 19.3 µM.
`NCc1cc(NC(=O)Cc2ccc(F)cc2)cc(C(=O)NC2(C(N)=O)CCC2)c1` [compound 10]: a half-maximal response (EC50) required 7.06 µM.
Molecule `CC(C)(NC(=O)c1cc(CN)cc(NC(=O)Cc2ccccc2)c1)C(N)=O` [Compound No. 1, 2-[[3-(Aminomethyl)-5-(2-phenylacetamido)phenyl]formamido]-2-methylpropanamide] came in with an EC50 of 0.39 µM.
As to `NCc1cc(NC(=O)Cc2ccc(F)cc2)cc(C(=O)NCC(N)=O)c1` [compound 9], the EC50 was 0.07 µM.
The same measure, in the same setting: the same measure for `CNC(=O)C(C)(C)NC(=O)c1cc(CN(C)C)cc(NC(=O)Cc2ccc(F)cc2)c1` [compound 18]: 21 µM.
Still for that read-out and setting: to `CC(C)(NC(=O)c1cc(NC(=O)Cc2ccc(F)cc2)ccc1CN)C(N)=O` [compound 12] belongs 14.3 µM.
Same read-out and setting: to `CC(C)(NC(=O)c1cc(NC(=O)Cc2ccccc2)ccc1CN)C(N)=O` [compound 11] belongs 20 µM.
On to `NCc1cc(NC(=O)Cc2ccccc2)cc(C(=O)NC2(C(N)=O)CC2)c1` [compound 3], for which the EC50 is 12.6 µM.
Still for that read-out and setting: to `CC(C)(NC(=O)C1(NC(=O)Cc2ccccc2)CCNCC1)C(N)=O` [Compound No. 22, 2-methyl-2-[[4-(2-phenylacetamido)piperidin-4-yl]formamido]propanamide] (PhAc-[Api]-[Aib]-NH2) belongs 4.22 µM; to `NCc1cc(NC(=O)Cc2ccccc2)cc(C(=O)NC2(C(N)=O)CCCC2)c1` [compound 7], 26.1 µM; to `CN(C)Cc1cc(NC(=O)Cc2ccc(F)cc2)cc(C(=O)NC(C)(C)C(N)=O)c1` [compound 17], 0.21 µM.
Still for that read-out and setting: to `CC(C)(NC(=O)c1cc(NC(=O)Cc2ccc(F)cc2)cc(CN)c1F)C(N)=O` [compound 16] belongs 20.6 µM; to `NC(=O)C1(NC(=O)C2(NC(=O)Cc3ccc(F)cc3)CCNCC2)CC1` [compound 25], 0.36 µM; to `NCc1cc(NC(=O)Cc2ccc(F)cc2)cc(C(=O)NC2(C(N)=O)CC2)c1` [compound 4], 15.7 µM.
As for `CNC(=O)C(C)(C)NC(=O)c1cc(CN)cc(NC(=O)Cc2ccc(F)cc2)c1` [compound 19], the EC50 was 20.7 µM.
In turn, `CC(C)(NC(=O)c1cc(CN)cc(NC(=O)Cc2ccc(F)cc2)c1)C(N)=O` [Compound No. 2] registered an EC50 of 0.93 µM.
For `NCc1cc(NC(=O)Cc2ccccc2)cc(C(=O)NC2(C(N)=O)CCC2)c1` [compound 6], the EC50 was 27.1 µM. This EC50 lies about 29-fold higher than the previous one.
The same measure, in the same setting: to `CC(C)(NC(=O)C1(NC(=O)Cc2ccc(F)cc2)CCNCC1)C(N)=O` [compound 23] belongs 9.02 µM.

The record behind these values is patent US20240010642A1, “MODULATORS OF PROGRAMMED DEATH-LIGAND-1” (SOUTHERN RESEARCH INSTITUTE, priority 2021, published 2024).
